# Tests used:
# ACHN [1] = experiment: Growth inhibition of human ACHN cells assessed as cell growth at 0.01 uM incubated for 48 hrs by sulforhodamine B assay relative to control; format: functional; settings: read-out: Activity
# T47D = experiment: Growth inhibition of human T47D cells assessed as cell growth at 0.01 uM incubated for 48 hrs by sulforhodamine B assay relative to control; format: functional; settings: read-out: Activity
# UACC-257 = experiment: Growth inhibition of human UACC257 cells assessed as cell growth at 100 uM incubated for 48 hrs by sulforhodamine B assay relative to control; format: functional; settings: UACC-257, 48 h, read-out: Activity
# MDA-MB-231 = experiment: Growth inhibition of human MDA-MB-231 cells assessed as cell growth at 0.1 uM incubated for 48 hrs by sulforhodamine B assay relative to control; format: functional; settings: MDA-MB-231, 48 h, read-out: Activity
# HT-29 [2] = experiment: Growth inhibition of human HT-29 cells assessed as cell growth at 0.1 uM incubated for 48 hrs by sulforhodamine B assay relative to control; format: functional; settings: HT-29, 48 h, read-out: Activity
# SK-MEL-5 = experiment: Growth inhibition of human SK-MEL-5 cells incubated for 48 hrs by sulforhodamine B assay; format: functional, cell-based; settings: SK-MEL-5, 48 h
# NCI-H23 = experiment: Growth inhibition of human NCI-H23 cells assessed as cell growth at 0.01 uM incubated for 48 hrs by sulforhodamine B assay relative to control; format: functional; settings: NCI-H23, 48 h, read-out: Activity
# SW-620 = experiment: Growth inhibition of human SW620 cells assessed as cell growth at 100 uM incubated for 48 hrs by sulforhodamine B assay relative to control; format: functional; settings: SW-620, 48 h, read-out: Activity
# ACHN [3] = experiment: Growth inhibition of human ACHN cells assessed as cell growth at 0.1 uM incubated for 48 hrs by sulforhodamine B assay relative to control; format: functional; settings: read-out: Activity
# CCRF-CEM = experiment: Growth inhibition of human CCRF-CEM cells incubated for 48 hrs by sulforhodamine B assay; format: functional, cell-based
# HOP-62 = experiment: Growth inhibition of human HOP62 cells assessed as cell growth at 0.1 uM incubated for 48 hrs by sulforhodamine B assay relative to control; format: functional; settings: HOP-62, 48 h, read-out: Activity
# OVCAR-8 = experiment: Growth inhibition of human OVCAR8 cells assessed as cell growth at 0.01 uM incubated for 48 hrs by sulforhodamine B assay relative to control; format: functional; settings: OVCAR-8, 48 h, read-out: Activity
# COLO 205 = experiment: Growth inhibition of human COLO205 cells incubated for 48 hrs by sulforhodamine B assay; format: functional, cell-based; settings: COLO 205, 48 h
# Malme-3M = experiment: Growth inhibition of human MALME-3M cells assessed as cell growth at 100 uM incubated for 48 hrs by sulforhodamine B assay relative to control; format: functional; settings: read-out: Activity
# KM12 = experiment: Growth inhibition of human KM12 cells incubated for 48 hrs by sulforhodamine B assay; format: functional, cell-based; settings: KM12, 48 h
# A549 = experiment: Growth inhibition of human A549/ATCC cells assessed as cell growth at 0.1 uM incubated for 48 hrs by sulforhodamine B assay relative to control; format: functional; settings: A549, 48 h, read-out: Activity
# MOLT-4 = experiment: Growth inhibition of human MOLT4 cells assessed as cell growth at 0.01 uM incubated for 48 hrs by sulforhodamine B assay relative to control; format: functional; settings: MOLT-4, 48 h, read-out: Activity
# HCT-15 = experiment: Growth inhibition of human HCT15 cells assessed as cell growth at 1 uM incubated for 48 hrs by sulforhodamine B assay relative to control; format: functional; settings: HCT-15, 48 h, read-out: Activity
# HL-60(TB) = experiment: Growth inhibition of human HL-60(TB) cells assessed as cell growth at 1 uM incubated for 48 hrs by sulforhodamine B assay relative to control; format: functional; settings: HL-60, 48 h, read-out: Activity
# NCI-H522 = experiment: Growth inhibition of human NCI-H522 cells assessed as cell growth at 0.1 uM incubated for 48 hrs by sulforhodamine B assay relative to control; format: functional; settings: NCI-H522, 48 h, read-out: Activity
# DU-145 = experiment: Growth inhibition of human DU145 cells assessed as cell growth at 1 uM incubated for 48 hrs by sulforhodamine B assay relative to control; format: functional; settings: DU-145, 48 h, read-out: Activity
# HT-29 [4] = experiment: Growth inhibition of human HT-29 cells incubated for 48 hrs by sulforhodamine B assay; format: functional, cell-based; settings: HT-29, 48 h
# NCI-H460 = experiment: Growth inhibition of human NCI-H460 cells assessed as cell growth at 0.01 uM incubated for 48 hrs by sulforhodamine B assay relative to control; format: functional; settings: NCI-H460, 48 h, read-out: Activity
# ACHN [5] = experiment: Growth inhibition of human ACHN cells incubated for 48 hrs by sulforhodamine B assay; format: functional, cell-based
# SF-295 = experiment: Growth inhibition of human SF295 cells assessed as cell growth at 1 uM incubated for 48 hrs by sulforhodamine B assay relative to control; format: functional; settings: SF-295, 48 h, read-out: Activity
# SNB-19 = experiment: Growth inhibition of human SNB19 cells incubated for 48 hrs by sulforhodamine B assay; format: functional, cell-based; settings: SNB-19, 48 h
# SK-OV-3 = experiment: Growth inhibition of human SKOV3 cells incubated for 48 hrs by sulforhodamine B assay; format: functional, cell-based; settings: SK-OV-3, 48 h
# K562 = experiment: Growth inhibition of human K562 cells assessed as cell growth at 100 uM incubated for 48 hrs by sulforhodamine B assay relative to control; format: functional; settings: K562, 48 h, read-out: Activity
# [6] = read-out: LC50 (the source's name)
# [7] = read-out: pLC50 (the source's name) (converted)
compound,measurement,setting,value
COc1cc(Cl)cc(-c2nn(-c3cccc(NC(=O)Nc4cc(C(F)(F)F)cc(C(F)(F)F)c4)c3)cc2-c2ccncc2)c1,growth at 0.01 µM,ACHN [1],103%
same,growth at 0.01 µM,T47D,96%
same,growth at 100 µM,UACC-257,-88%
same,growth at 0.1 µM,MDA-MB-231,90%
same,growth at 0.1 µM,HT-29 [2],101%
same,IC50,SK-MEL-5,1140 nM
same,GI50,SK-MEL-5; read-out: GI50,1140 nM
same,CC50,SK-MEL-5; [6],50.4 nM
same,TGI,SK-MEL-5; read-out: TGI,2390 nM
same,GI50,SK-MEL-5; read-out: pGI50 (converted),1150 nM
same,CC50,SK-MEL-5; [7],5010 nM
same,TGI,SK-MEL-5; read-out: pTGI (converted),2400 nM
same,growth at 0.01 µM,NCI-H23,94%
same,growth at 100 µM,SW-620,-72%
same,growth at 0.1 µM,ACHN [3],99%
same,IC50,CCRF-CEM,270 nM
same,GI50,CCRF-CEM; read-out: GI50,273 nM
same,CC50,CCRF-CEM; [6],> 100000 nM
same,TGI,CCRF-CEM; read-out: TGI,1330 nM
same,GI50,CCRF-CEM; read-out: pGI50 (converted),275 nM
same,CC50,CCRF-CEM; [7],> 100000 nM
same,TGI,CCRF-CEM; read-out: pTGI (converted),1350 nM
same,growth at 0.1 µM,HOP-62,93%
same,growth at 0.01 µM,OVCAR-8,99%
same,IC50,COLO 205,450 nM
same,GI50,COLO 205; read-out: GI50,448 nM
same,TGI,COLO 205; read-out: TGI,1880 nM
same,GI50,COLO 205; read-out: pGI50 (converted),447 nM
same,CC50,COLO 205; [7],6920 nM
same,TGI,COLO 205; read-out: pTGI (converted),1860 nM
same,growth at 100 µM,Malme-3M,-39%
same,IC50,KM12,510 nM
same,GI50,KM12; read-out: GI50,606 nM
same,CC50,KM12; [6],27.9 nM
same,TGI,KM12; read-out: TGI,2750 nM
same,GI50,KM12; read-out: pGI50 (converted),501 nM
same,CC50,KM12; [7],28200 nM
same,TGI,KM12; read-out: pTGI (converted),2750 nM
same,growth at 0.1 µM,A549,95%
same,growth at 0.01 µM,MOLT-4,94%
same,growth at 1 µM,HCT-15,17%
same,growth at 1 µM,HL-60(TB),14%
same,growth at 0.1 µM,NCI-H522,80%
same,growth at 1 µM,DU-145,27%
same,IC50,HT-29 [4],450 nM
same,GI50,HT-29 [4]; read-out: GI50,453 nM
same,CC50,HT-29 [4]; [6],12.6 nM
same,TGI,HT-29 [4]; read-out: TGI,2210 nM
same,GI50,HT-29 [4]; read-out: pGI50 (converted),457 nM
same,CC50,HT-29 [4]; [7],12900 nM
same,TGI,HT-29 [4]; read-out: pTGI (converted),2820 nM
same,growth at 0.01 µM,NCI-H460,101%
same,IC50,ACHN [5],400 nM
same,GI50,ACHN [5]; read-out: GI50,397 nM
same,CC50,ACHN [5]; [6],> 100000 nM
same,TGI,ACHN [5]; read-out: TGI,12500 nM
same,GI50,ACHN [5]; read-out: pGI50 (converted),398 nM
same,CC50,ACHN [5]; [7],> 100000 nM
same,TGI,ACHN [5]; read-out: pTGI (converted),12600 nM
same,growth at 1 µM,SF-295,12%
same,IC50,SNB-19,420 nM
same,GI50,SNB-19; read-out: GI50,420 nM
same,CC50,SNB-19; [6],> 100000 nM
same,TGI,SNB-19; read-out: TGI,11300 nM
same,GI50,SNB-19; read-out: pGI50 (converted),417 nM
same,CC50,SNB-19; [7],> 100000 nM
same,TGI,SNB-19; read-out: pTGI (converted),11200 nM
same,IC50,SK-OV-3,770 nM
same,GI50,SK-OV-3; read-out: GI50,770 nM
same,CC50,SK-OV-3; [6],41.2 nM
same,TGI,SK-OV-3; read-out: TGI,5750 nM
same,GI50,SK-OV-3; read-out: pGI50 (converted),776 nM
same,CC50,SK-OV-3; [7],41700 nM
same,TGI,SK-OV-3; read-out: pTGI (converted),5750 nM
same,growth at 100 µM,K562,-42%

# — ChEMBL document CHEMBL4308841, “Synthesis, in vitro antiproliferative activity, and kinase inhibitory effects of pyrazole-containing diarylureas and diarylamides” (Eur J Med Chem, 2018)
